Results taken from PubChem BioAssay AID1963426 (Molecular Pharmacology Branch, DTP, NCI, 2024).

System: 186277-243-T-J2-PDC complex spheroid growth, % test/control
Assay: Anticancer human tumor 186277-243-T-J2-PDC patient-derived colon adenocarcinoma cell line growth inhibition [Asc]
Conditions: for IC50: curve of first compound; for viability, T/C: stronger effect = lower value
How it was run: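 Stromal components (HUVEC and hMSC) are co-assembled with the cancer cells into multicellular spheroids. Drugs are then added singly or paired, at concentrations falling by half-log increments from a clinically achievable maximum, capped at 10 microM without known Cmax.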

[1] = second compound 0.1 µM, first compound 0.0316 µM
[2] = second compound 0.1 µM, first compound 0.1 µM
[3] = second compound 0.1 µM, first compound 0.316 µM
[4] = second compound 0.1 µM, first compound 1 µM
[5] = second compound 0.1 µM, first compound 3.16 µM
[6] = second compound 0.1 µM, first compound 10 µM
[7] = second compound 0.316 µM, first compound 0.0316 µM
[8] = second compound 0.316 µM, first compound 0.1 µM
[9] = second compound 0.316 µM, first compound 0.316 µM
[10] = second compound 0.316 µM, first compound 1 µM
[11] = second compound 0.316 µM, first compound 3.16 µM
[12] = second compound 0.316 µM, first compound 10 µM
[13] = second compound 1 µM, first compound 0.0316 µM
[14] = second compound 1 µM, first compound 0.1 µM
[15] = second compound 1 µM, first compound 0.316 µM
[16] = second compound 1 µM, first compound 1 µM
[17] = second compound 1 µM, first compound 3.16 µM
[18] = second compound 1 µM, first compound 10 µM
[19] = second compound 3.16 µM, first compound 0.0316 µM
[20] = second compound 3.16 µM, first compound 0.1 µM
[21] = second compound 3.16 µM, first compound 0.316 µM
[22] = second compound 3.16 µM, first compound 1 µM
[23] = second compound 3.16 µM, first compound 3.16 µM
[24] = second compound 3.16 µM, first compound 10 µM
[25] = second compound 10 µM, first compound 0.0316 µM
[26] = second compound 10 µM, first compound 0.1 µM
[27] = second compound 10 µM, first compound 0.316 µM
[28] = second compound 10 µM, first compound 1 µM
[29] = second compound 10 µM, first compound 3.16 µM
[30] = second compound 10 µM, first compound 10 µM
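Further: spheroids exposed to agents for 7 days.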
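Wherever viability, T/C is given: 100% = DMSO vehicle control wells.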

SMILES: C=C(F)C(=O)N1CCN(c2nc(OCC3CCCN3C)nc3c2CCN(c2cccc4cccc(Cl)c24)C3)CC1CC#N (stereo not given) + Cc1c(S(C)(=O)=O)c(-c2cc(F)cc(N3CCN(c4ccc(NS(=O)(=O)c5ccc(NC(CCN6CCC(C(=O)OCCCP(=O)(O)O)CC6)CSc6ccccc6)c(S(=O)(=O)C(F)(F)F)c5)cc4)CC3)c2)c(-c2ccc(Cl)cc2)n1C(C)C
- IC50 (second compound 0.1 µM): 5550 nM
- IC50 (second compound 0.316 µM): 4400 nM
- IC50 (second compound 1 µM): 2590 nM
- IC50 (second compound 3.16 µM): 2180 nM
- IC50 (second compound 10 µM): 2370 nM
- viability, T/C [1]: 109%
- viability, T/C [2]: 111%
- viability, T/C [3]: 110%
- viability, T/C [4]: 110%
- viability, T/C [5]: 97.2%
- viability, T/C [6]: 0.54%
- viability, T/C [7]: 106%
- viability, T/C [8]: 109%
- viability, T/C [9]: 108%
- viability, T/C [10]: 111%
- viability, T/C [11]: 70%
- viability, T/C [12]: 0.32%
- viability, T/C [13]: 115%
- viability, T/C [14]: 119%
- viability, T/C [15]: 107%
- viability, T/C [16]: 124%
- viability, T/C [17]: 36.1%
- viability, T/C [18]: 0.51%
- viability, T/C [19]: 105%
- viability, T/C [20]: 108%
- viability, T/C [21]: 112%
- viability, T/C [22]: 104%
- viability, T/C [23]: 24.2%
- viability, T/C [24]: 0.16%
- viability, T/C [25]: 120%
- viability, T/C [26]: 106%
- viability, T/C [27]: 116%
- viability, T/C [28]: 107%
- viability, T/C [29]: 31.2%
- viability, T/C [30]: 0.25%

SMILES: C=CC(=O)N1CCN(c2nc(=O)n(-c3c(C)ccnc3C(C)C)c3nc(-c4c(O)cccc4F)c(F)cc23)C(C)C1 (stereo not given) + Cc1c(S(C)(=O)=O)c(-c2cc(F)cc(N3CCN(c4ccc(NS(=O)(=O)c5ccc(NC(CCN6CCC(C(=O)OCCCP(=O)(O)O)CC6)CSc6ccccc6)c(S(=O)(=O)C(F)(F)F)c5)cc4)CC3)c2)c(-c2ccc(Cl)cc2)n1C(C)C
- IC50 (second compound 0.1 µM): > 10000 nM
- IC50 (second compound 0.316 µM): > 10000 nM
- IC50 (second compound 1 µM): > 10000 nM
- IC50 (second compound 3.16 µM): > 10000 nM
- IC50 (second compound 10 µM): > 10000 nM
- viability, T/C [1]: 120%
- viability, T/C [2]: 105%
- viability, T/C [3]: 105%
- viability, T/C [4]: 108%
- viability, T/C [5]: 116%
- viability, T/C [6]: 113%
- viability, T/C [7]: 111%
- viability, T/C [8]: 104%
- viability, T/C [9]: 104%
- viability, T/C [10]: 104%
- viability, T/C [11]: 119%
- viability, T/C [12]: 116%
- viability, T/C [13]: 128%
- viability, T/C [14]: 115%
- viability, T/C [15]: 100%
- viability, T/C [16]: 116%
- viability, T/C [17]: 119%
- viability, T/C [18]: 119%
- viability, T/C [19]: 105%
- viability, T/C [20]: 123%
- viability, T/C [21]: 115%
- viability, T/C [22]: 111%
- viability, T/C [23]: 116%
- viability, T/C [24]: 116%
- viability, T/C [25]: 102%
- viability, T/C [26]: 109%
- viability, T/C [27]: 102%
- viability, T/C [28]: 119%
- viability, T/C [29]: 104%
- viability, T/C [30]: 110%

SMILES: CCN1C(C(=O)NC23CCC(C(=O)O)(CC2)CC3)C(c2cccc(Cl)c2F)C2(C(=O)Nc3cc(Cl)ccc32)C12CCCCC2 (stereo not given) + Cc1c(S(C)(=O)=O)c(-c2cc(F)cc(N3CCN(c4ccc(NS(=O)(=O)c5ccc(NC(CCN6CCC(C(=O)OCCCP(=O)(O)O)CC6)CSc6ccccc6)c(S(=O)(=O)C(F)(F)F)c5)cc4)CC3)c2)c(-c2ccc(Cl)cc2)n1C(C)C
- IC50 (second compound 0.1 µM): 746 nM
- IC50 (second compound 0.316 µM): 397 nM
- IC50 (second compound 1 µM): 202 nM
- IC50 (second compound 3.16 µM): 110 nM
- IC50 (second compound 10 µM): 97.5 nM
- viability, T/C (second compound 0.1 µM, first compound 0.00949 µM): 103%
- viability, T/C (second compound 0.1 µM, first compound 0.03 µM): 137%
- viability, T/C (second compound 0.1 µM, first compound 0.0949 µM): 91.4%
- viability, T/C (second compound 0.1 µM, first compound 0.3 µM): 73.6%
- viability, T/C (second compound 0.1 µM, first compound 0.949 µM): 47.5%
- viability, T/C (second compound 0.1 µM, first compound 3 µM): 14%
- viability, T/C (second compound 0.316 µM, first compound 0.00949 µM): 111%
- viability, T/C (second compound 0.316 µM, first compound 0.03 µM): 121%
- viability, T/C (second compound 0.316 µM, first compound 0.0949 µM): 82.6%
- viability, T/C (second compound 0.316 µM, first compound 0.3 µM): 59.3%
- viability, T/C (second compound 0.316 µM, first compound 0.949 µM): 26.1%
- viability, T/C (second compound 0.316 µM, first compound 3 µM): 1.1%
- viability, T/C (second compound 1 µM, first compound 0.00949 µM): 107%
- viability, T/C (second compound 1 µM, first compound 0.03 µM): 126%
- viability, T/C (second compound 1 µM, first compound 0.0949 µM): 72.7%
- viability, T/C (second compound 1 µM, first compound 0.3 µM): 38.3%
- viability, T/C (second compound 1 µM, first compound 0.949 µM): 8.6%
- viability, T/C (second compound 1 µM, first compound 3 µM): 1.06%
- viability, T/C (second compound 3.16 µM, first compound 0.00949 µM): 120%
- viability, T/C (second compound 3.16 µM, first compound 0.03 µM): 103%
- viability, T/C (second compound 3.16 µM, first compound 0.0949 µM): 52.5%
- viability, T/C (second compound 3.16 µM, first compound 0.3 µM): 19.8%
- viability, T/C (second compound 3.16 µM, first compound 0.949 µM): 2.56%
- viability, T/C (second compound 3.16 µM, first compound 3 µM): 0.36%
- viability, T/C (second compound 10 µM, first compound 0.00949 µM): 107%
- viability, T/C (second compound 10 µM, first compound 0.03 µM): 110%
- viability, T/C (second compound 10 µM, first compound 0.0949 µM): 49.7%
- viability, T/C (second compound 10 µM, first compound 0.3 µM): 13.4%
- viability, T/C (second compound 10 µM, first compound 0.949 µM): 3.44%
- viability, T/C (second compound 10 µM, first compound 3 µM): 0.38%

SMILES: CNC(C)C(=O)NC1CN(S(=O)(=O)c2cccc(S(=O)(=O)N3CCC4CCC(C(=O)NC(c5ccccc5)c5ccccc5)N4C(=O)C(NC(=O)C(C)NC)C3)c2)CCC2CCC(C(=O)NC(c3ccccc3)c3ccccc3)N2C1=O (stereo not given) + Cc1c(S(C)(=O)=O)c(-c2cc(F)cc(N3CCN(c4ccc(NS(=O)(=O)c5ccc(NC(CCN6CCC(C(=O)OCCCP(=O)(O)O)CC6)CSc6ccccc6)c(S(=O)(=O)C(F)(F)F)c5)cc4)CC3)c2)c(-c2ccc(Cl)cc2)n1C(C)C
- IC50 (second compound 0.1 µM): > 1000 nM
- IC50 (second compound 0.316 µM): > 1000 nM
- IC50 (second compound 1 µM): > 1000 nM
- IC50 (second compound 3.16 µM): > 1000 nM
- IC50 (second compound 10 µM): > 1000 nM
- viability, T/C (second compound 0.1 µM, first compound 0.00316 µM): 99.7%
- viability, T/C (second compound 0.1 µM, first compound 0.01 µM): 108%
- viability, T/C [1]: 111%
- viability, T/C [2]: 106%
- viability, T/C [3]: 101%
- viability, T/C [4]: 110%
- viability, T/C (second compound 0.316 µM, first compound 0.00316 µM): 102%
- viability, T/C (second compound 0.316 µM, first compound 0.01 µM): 104%
- viability, T/C [7]: 102%
- viability, T/C [8]: 105%
- viability, T/C [9]: 108%
- viability, T/C [10]: 110%
- viability, T/C (second compound 1 µM, first compound 0.00316 µM): 123%
- viability, T/C (second compound 1 µM, first compound 0.01 µM): 114%
- viability, T/C [13]: 101%
- viability, T/C [14]: 110%
- viability, T/C [15]: 110%
- viability, T/C [16]: 99.5%
- viability, T/C (second compound 3.16 µM, first compound 0.00316 µM): 105%
- viability, T/C (second compound 3.16 µM, first compound 0.01 µM): 109%
- viability, T/C [19]: 93.6%
- viability, T/C [20]: 109%
- viability, T/C [21]: 110%
- viability, T/C [22]: 104%
- viability, T/C (second compound 10 µM, first compound 0.00316 µM): 93.6%
- viability, T/C (second compound 10 µM, first compound 0.01 µM): 103%
- viability, T/C [25]: 102%
- viability, T/C [26]: 109%
- viability, T/C [27]: 101%
- viability, T/C [28]: 107%
